Results: patent US20130184302A1, “METHODS FOR TREATING IRRITABLE BOWEL SYNDROME (IBS) AND INFECTIONS” (priority 2011, published 2013)

Key:
Type in all cases: in vivo, human
[1] = test system: C. difficile infection (CDI); experiment: CDI trial rifaximin 400 mg TID vs vancomycin 125 mg QID: clinical success at Test of Cure; settings: at TOC (Day 14+/−1)
Description: Criteria for entry into the trial were: • Age>=18 years old; • Had acute diarrhea at screening defined as >=3 unformed stools in the last 24 hours and at least one sign of enteric infection (fever, nausea, lose of appetite, vomiting, severe abdominal pain/discomfort); and • a positive C. diff stool toxin assay
The primary efficacy endpoint of the study was defined as the proportion of subjects achieving clinical success. Specifically, clinical success was defined as the absence of severe abdominal pain at Test of Cure (TOC), absence of fever (<38° C.) at TOC, and <3 unformed stools for two consecutive days at TOC.
The non-inferiority margin for the primary endpoint was defined as lower bound of 95% CI of delta above −15%.
Clinical success was defined as the: Absence of severe abdominal pain at TOC, absence of fever (<38° C.) at TOC, and <3 unformed stools for two consecutive days at TOC. Test of cure defined as Day 14+/−1 day.

[2] = test system: C. difficile infection (CDI); experiment: CDI trial: enteric symptoms at TOC; settings: Rifaximin N = 108, Vancomycin N = 111
Description: Table 41 sets forth a summary of the enteric symptoms at TOC.

[3] = test system: C. difficile infection (CDI); experiment: CDI trial: subgroup analysis of diarrhea at TOC; settings: at TOC
Description: Tables 42 and 43 set forth a subgroup analysis of diarrhea at TOC.

[4] = test system: C. difficile infection (CDI); experiment: CDI trial: recurrence of CDI, recurrence rate per person-year
Description: Recurrence was defined to be a diarrhea and a positive C. diff stool toxin assay that occurred after initial clinical success.

[5] = test system: C. difficile infection (CDI); experiment: CDI trial: global cure of diarrhea; settings: Rifaximin N = 117, Vancomycin N = 115
Description: Subjects having a global cure of diarrhea are set for the in Table 45. Global cure of diarrhea was defined as subjects who were cured of diarrhea at TOC without recurrence at follow up.

[6] = test system: C. difficile infection (CDI); experiment: CDI trial: continuing illnesses; settings: Rifaximin N = 117, Vancomycin N = 115
[7] = test system: C. difficile infection (CDI); experiment: CDI trial: efficacy adjusting for concomitant medication usage
Description: Table 48 sets forth the efficacy adjusting for concomitant medication usage.

[8] = test system: C. difficile infection (CDI); experiment: CDI trial: number of unformed stools during the treatment period; settings: during the treatment period; ANOVA model with treatment and center as main effects; Rifaximin N = 117, Vancomycin N = 115
Description: FIG. 18 sets for the average number of unformed stools per day of the study.

[9] = Rifaximin N = 117, Vancomycin N = 115
[10] = subgroup Age <65, Rifaximin N = 69, Vancomycin N = 62
[11] = subgroup Age >=65, Rifaximin N = 39, Vancomycin N = 49
[12] = subgroup Female, Rifaximin N = 68, Vancomycin N = 64
[13] = subgroup Male, Rifaximin N = 40, Vancomycin N = 47
[14] = after initial clinical success, Rifaximin N = 67, Vancomycin N = 73
[15] = all subjects, Rifaximin N = 117, Vancomycin N = 115
[16] = cured of diarrhea at TOC without recurrence at follow up
[17] = Rifaximin N = 109, Vancomycin N = 112

## CN[C@H](CC(C)C)C(=O)N[C@H]1C(=O)N[C@@H](CC(N)=O)C(=O)N[C@H]2C(=O)N[C@H]3C(=O)N[C@H](C(=O)N[C@H](C(=O)O)c4cc(O)cc(O)c4-c4cc3ccc4O)[C@H](O)c3ccc(c(Cl)c3)Oc3cc2cc(c3O[C@@H]2O[C@H](CO)[C@@H](O)[C@H](O)[C@H]2O[C@H]2C[C@](C)(N)[C@H](O)[C@H](C)O2)Oc2ccc(cc2Cl)[C@H]1O [Vancomycin, vancomycin]
[1]; Rifaximin 400 mg TID N = 117, Vancomycin 125 mg QID N = 115
  Clinical Success: Yes, number of subjects: 73
[1]; [9]
  Clinical Success: No, number of subjects: 42
  Clinical Success: No, percent of subjects: (37%)
  Clinical Success: Yes, percent of subjects: (64%)
[2]
  Diarrhea: No, number of subjects: 90
  Diarrhea: No, percent of subjects: (81%)
  Diarrhea: Yes, number of subjects: 21
  Diarrhea: Yes, percent of subjects: (19%)
  Fever: No, number of subjects: 109
  Fever: No, percent of subjects: (98%)
  Fever: Yes, number of subjects: 2
  Fever: Yes, percent of subjects: (2%)
  Severe Abdominal Pain/Discomfort: No, number of subjects: 95
  Severe Abdominal Pain/Discomfort: No, percent of subjects: (86%)
  Severe Abdominal Pain/Discomfort: Yes, number of subjects: 16
  Severe Abdominal Pain/Discomfort: Yes, percent of subjects: (14%)
[3]; [10]
  Diarrhea, number of subjects: 12
  Diarrhea, percent of subjects: (19%)
  No Diarrhea, number of subjects: 50
  No Diarrhea, percent of subjects: (81%)
[3]; [11]
  Diarrhea, number of subjects: 9
  Diarrhea, percent of subjects: (18%)
  No Diarrhea, number of subjects: 40
  No Diarrhea, percent of subjects: (82%)
[3]; [12]
  Diarrhea, number of subjects: 11
  Diarrhea, percent of subjects: (17%)
  No Diarrhea, number of subjects: 53
  No Diarrhea, percent of subjects: (83%)
[3]; [13]
  Diarrhea, number of subjects: 10
  Diarrhea, percent of subjects: (21%)
  No Diarrhea, number of subjects: 37
  No Diarrhea, percent of subjects: (79%)
[4]; [14]
  No Recurrence of CDI, number of subjects: 63
  No Recurrence of CDI, percent of subjects: (86%)
  Recurrence of CDI, number of subjects: 10
  Recurrence of CDI, percent of subjects: (14%)
[4]; [15]
  Recurrence: No, number of subjects: 105
  Recurrence: No, percent of subjects: (93%)
  Recurrence: Yes, number of subjects: 10
  Recurrence: Yes, percent of subjects: (7%)
[5]
  Global Cure of Diarrhea: No, number of subjects: 30
  Global Cure of Diarrhea: No, percent of subjects: (26%)
[5]; [16]
  Global Cure of Diarrhea: Yes, number of subjects: 85
  Global Cure of Diarrhea: Yes, percent of subjects: (74%)
[6]
  Continuing Illness: No, number of subjects: 99
  Continuing Illness: No, percent of subjects: (86%)
  Continuing Illness: Yes, number of subjects: 16
  Continuing Illness: Yes, percent of subjects: (14%)
[7]; [17]
  Diarrhea: No, number of subjects: 82
  Diarrhea: No, percent of subjects: (73%)
  Diarrhea: Yes, number of subjects: 30
  Diarrhea: Yes, percent of subjects: (27%)
[7]; [9]
  Clinical Success: No, number of subjects: 46
  Clinical Success: No, percent of subjects: (40%)
  Clinical Success: Yes, number of subjects: 69
  Clinical Success: Yes, percent of subjects: (60%)
[8]
  Adjusted mean number of unformed stools-ANOVA: 1.90
